Literature values in publication PMC11089247 (Frontiers in Pharmacology, 2024).
Structures can show the parent of a compound that is named as a salt.

Experiments:
[1] = test system: CYP2C19; details: substrate fluoxetine, ref Fang et al., 2017
[2] = test system: CYP2C9; parameters: method as in Ji et al., 2015; details: substrate fluoxetine, ref Ji et al., 2015

## CNCCC(Oc1ccc(C(F)(F)F)cc1)c1ccccc1 (centres unmarked) [fluoxetine, Fluoxetine hydrochloride]
[1]
  Km: 97.6 µM
[2]
  Km: 31.7 µM
